Test results published in patent US4015002A, “1-Aryl-2-oxo-2,4,5,6,7,7a-hexahydro-indoles, salts, pharmaceutical compositions and methods of use” (Laboratoire Roger Bellon, priority 1974, dated 1977).
Converted amounts (≈) assume the structure as drawn. Where two headings read alike, the source gives them in different places.

Legend:
isolated auricle = assay: Cardiac action on the isolated auricle (Trevan preparation): amplitude of contractions; conditions: arrows for diminution/increase are drawings, 0 = inactive, read-out: Action on the isolated auricle: minimum concentration producing a variation of 20% in amplitude of contractions
Protocol: (§1) This was examined according to known methods in the isolated auricle (Trevan preparation) and in the isolated heart of a rabbit (Langendorf preparation).
Cardiac action of the compounds in question was evaluated according to the amplitude of contractions of the isolated auricle.

[1] = system: isolated heart of the rabbit; assay: Cardiac action on the isolated heart of a rabbit (Langendorf preparation); conditions: for EC20: Oryctolagus cuniculus, direction arrow is a drawing
Protocol: as §1
In the Langendorf preparation, the action of the compounds was determined from three parameters; the amplitude of contractions, coronary delivery, and rhythm. […] The results are indicated in Table 1; an arrow ↓ indicates a diminution, and an arrow ↑ an augmentation.

[2] = Toxicity, intravenous in the mouse; conditions: in vivo, i.v.
Protocol: The toxicities of the various compound were determined intravenously in the mouse.

anaethestized dog = assay: Action on femoral delivery, aortal pressure and cardiac rhythm in the anaesthetized dog; assay type: in vivo; conditions: for Aortal pressure (in words) / Cardiac frequency (in words) / Vasodilator action (in words): anaesthetized dog, i.v.; for Vasodilator action (in words): 1/10 of mouse LD50; for Aortal pressure, maximum variation in 30 minutes / Femoral Delivery, maximum variation in 30 minutes / Cardiac Rhythm, maximum variation in 30 minutes: i.v. perfusion over 5 min, dose 1/10 of mouse LD50, percent based on initial values
Protocol: This was investigated in an anaethestized dog, the compounds under test being administered by intraveneous perfusion (over 5 minutes). The various compounds under test were compared by administering all of them at a dose per kilogram corresponding to 1/10 of the mouse LD50 (I.V.).
Simultaneously were measured: variations of femoral delivery, aortal pressure, and cardiac rhythm. Table II indicates the maximum variations of these different parameters observed over the 30 minutes which followed administration of various compounds. These variations are expressed in percent based on the initial values.

[3] = read-out: Amplitude of contractions: concentration producing a variation of 20%
[4] = read-out: Rhythm: concentration producing a variation of 20%
[5] = read-out: Coronary delivery: concentration producing a variation of 20%

CC(C)N(CCOc1cccc(N2C(=O)C=C3CCCCC32)c1)C(C)C (centres unmarked) [Example 13, 1-[3-(2-Diisopropylaminoethoxy)-phenyl]-2-oxo-2,4,5,6,7,7a-hexahydro-indole] showed an EC20 (isolated auricle) of 5 µg/mL (≈ 14 µM), an EC20 [1, 3] of 1 µg/mL (≈ 2.8 µM) and an EC20 [1, 4] of 20 µg/mL (≈ 56.1 µM). For the same molecule, the LD50 [2] was 55 mg/kg and the “Aortal pressure (in words)” value (anaethestized dog) was “hypertensives”.

For CCN(CC)CCOc1cccc(N2C(=O)C=C3CCCCC32)c1 (centres unmarked) [Example 11, 1-[3-(2-Diethylaminoethoxy)-phenyl]-2-oxo-2,4,5,6,7,7a-hexahydro-indole], the EC20 (isolated auricle) was 10 µg/mL (≈ 30.4 µM), the EC20 [1, 3] was 2 µg/mL (≈ 6.09 µM) and the EC20 [1, 4] was 10 µg/mL (≈ 30.4 µM). For the same molecule, the LD50 [2] was 90 mg/kg, the “Aortal pressure (in words)” value (anaethestized dog) was “without modifying aortal pressure” and the “Cardiac frequency (in words)” value (anaethestized dog) was “without modifying aortal pressure or cardiac frequency”. The “Vasodilator action (in words)” value (anaethestized dog) was “clearly vasodilators” and the “Aortal pressure, maximum variation in 30 minutes” value (from here on “Aortal pressure … in 30 minutes”) (anaethestized dog) was 0%.

CCN(CC)CCOc1ccc(N2C(=O)C=C3CCCCC32)cc1Cl (centres unmarked) [Example 16, 1-[3-Chloro-4-(2-diethylaminoethoxy)-phenyl]-2-oxo-2,4,5,6,7,7a-hexahydro-indole] gave an EC20 (isolated auricle) of 5 µg/mL (≈ 13.8 µM), an EC20 [1, 3] of 1 µg/mL (≈ 2.76 µM) and an EC20 [1, 4] of 1 µg/mL (≈ 2.76 µM). The LD50 [2] was 22 mg/kg and the “Aortal pressure … in 30 minutes” value (anaethestized dog) was 0%.

Work on CN(C)CCOc1ccc(N2C(=O)C=C3CCCCC32)cc1 (centres unmarked) [Example 5, 1-[4-(2-Dimethylaminoethoxy)-phenyl]-2-oxo-2,4,5,6,7,7a-hexahydro-indole] yielded an EC20 (isolated auricle) of 50 µg/mL (≈ 166 µM), an EC20 [1, 3] of 1 µg/mL (≈ 3.33 µM) and an EC20 [1, 5] of 20 µg/mL (≈ 66.6 µM). For the same molecule, the EC20 [1, 4] was 10 µg/mL (≈ 33.3 µM), the LD50 [2] was 90 mg/kg and the “Aortal pressure … in 30 minutes” value (anaethestized dog) was 0%. For the same molecule, the “Femoral Delivery, maximum variation in 30 minutes” value (“Femoral Delivery” below) (anaethestized dog) was 0%.

In the case of O=C1C=C2CCCCC2N1c1ccc(OCCN2CCOCC2)c(Cl)c1 (centres unmarked) [Example 17, 1-[3-Chloro-4-(2-morpholinoethoxy)-phenyl]-2-oxo-2,4,5,6,7,7a-hexahydro-indole], the “Coronary delivery (in words)” value [1] is reported as “augmented”, the EC20 [1, 3] is reported as 1 µg/mL (≈ 2.65 µM) and the EC20 [1, 5] is reported as 50 µg/mL (≈ 133 µM). For the same molecule, the EC20 [1, 4] was 20 µg/mL (≈ 53.1 µM), the LD50 [2] was 120 mg/kg and the “Aortal pressure … in 30 minutes” value (anaethestized dog) was 0%.

With O=C1C=C2CCCCC2N1c1ccc(OCCN2CCCCC2)cc1 (centres unmarked) [Example 6, 1-[4-(2-Piperidinoethoxy)-phenyl]-2-oxo-2,4,5,6,7,7a-hexahydro-indole] the EC20 (isolated auricle) was 10 µg/mL (≈ 29.4 µM), the EC20 [1, 3] was 1 µg/mL (≈ 2.94 µM) and the EC20 [1, 5] was 20 µg/mL (≈ 58.7 µM). The EC20 [1, 4] was 20 µg/mL (≈ 58.7 µM), the LD50 [2] was 40 mg/kg and the “Aortal pressure … in 30 minutes” value (anaethestized dog) was 0%. The “Femoral Delivery” value (anaethestized dog) was 0%.

O=C1C=C2CCCCC2N1c1ccc(OCCN2CCCCC2)c(Cl)c1 (centres unmarked) [Example 14, 1-[3-chloro-4-(2-piperidinoethoxy)-phenyl]-2-oxo-2,4,5,6,7,7a-hexahydro-indole] gave an EC20 (isolated auricle) of 10 µg/mL (≈ 26.7 µM), an EC20 [1, 3] of 1 µg/mL (≈ 2.67 µM) and an EC20 [1, 4] of 20 µg/mL (≈ 53.3 µM). For the same molecule, the LD50 [2] was 25 mg/kg, the “Aortal pressure (in words)” value (anaethestized dog) was “without modifying aortal pressure” and the “Cardiac frequency (in words)” value (anaethestized dog) was “without modifying aortal pressure or cardiac frequency”. For the same molecule, the “Vasodilator action (in words)” value (anaethestized dog) was “clearly vasodilators” and the “Aortal pressure … in 30 minutes” value (anaethestized dog) was 0%.

Work on CC(C)N(CCOc1ccc(N2C(=O)C=C3CCCCC32)cc1)C(C)C (centres unmarked) [Example 7, 1-[4-(2Diisopropylaminoethoxy)-phenyl]-2-oxo-2,4,5,6,7,7a-hexahydro-indole] yielded an EC20 (isolated auricle) of 10 µg/mL (≈ 28 µM), an EC20 [1, 3] of 1 µg/mL (≈ 2.8 µM) and an EC20 [1, 4] of 20 µg/mL (≈ 56.1 µM). For the same molecule, the LD50 [2] was 85 mg/kg, the “Aortal pressure … in 30 minutes” value (anaethestized dog) was 0% and the “Cardiac Rhythm, maximum variation in 30 minutes” value (“Cardiac Rhythm” below) (anaethestized dog) was 0%.

For O=C1C=C2CCCCC2N1c1cccc(OCCN2CCCCC2)c1 (centres unmarked) [Example 10, 1-[3-(2-piperidinoethoxy)-phenyl]-2-oxo-2,4,5,6,7,7a-hexahydro-indole], the EC20 (isolated auricle) was 5 µg/mL (≈ 14.7 µM), the EC20 [1, 3] was 1 µg/mL (≈ 2.94 µM) and the EC20 [1, 5] was 20 µg/mL (≈ 58.7 µM). For the same molecule, the EC20 [1, 4] was 20 µg/mL (≈ 58.7 µM), the LD50 [2] was 130 mg/kg and the “Aortal pressure (in words)” value (anaethestized dog) was “hypotension”. The “Cardiac frequency (in words)” value (anaethestized dog) was “tachycardia” and the “Vasodilator action (in words)” value (anaethestized dog) was “vasodilators”.

For CN(C)CCOc1ccc(N2C(=O)C(c3ccccc3)=C3CCCCC32)cc1 (centres unmarked) [Example 19, 1-[4-(2-Dimethylaminoethoxy)-phenyl]-2-oxo-3-phenyl-2,4,5,6,7,7a-hexahydro-indole], the EC20 (isolated auricle) was 20 µg/mL (≈ 53.1 µM), the “Coronary delivery (in words)” value [1] was “augmented” and the EC20 [1, 3] was 1 µg/mL (≈ 2.66 µM). For the same molecule, the EC20 [1, 5] was 5 µg/mL (≈ 13.3 µM), the EC20 [1, 4] was 10 µg/mL (≈ 26.6 µM) and the LD50 [2] was 10 mg/kg. For the same molecule, the “Femoral Delivery” value (anaethestized dog) was 0%.

CCN(CC)CCOc1ccc(N2C(=O)C=C3CCCCC32)cc1 (centres unmarked) [Example 1, 1-[4-(2-diethylaminoethoxy)-phenyl] -2-oxo-2,4,5,6,7,7a-hexahydro-indole] gave an EC20 (isolated auricle) of 20 µg/mL (≈ 60.9 µM), an EC20 [1, 3] of 5 µg/mL (≈ 15.2 µM) and an LD50 [2] of 150 mg/kg. The “Aortal pressure … in 30 minutes” value (anaethestized dog) was 0% and the “Cardiac Rhythm” value (anaethestized dog) was 0%.

CN(C)CCCOc1ccc(N2C(=O)C=C3CCCCC32)cc1 (centres unmarked) [Example 8, 1-[4-(3-Dimethylaminopropoxy)-phenyl]-2-oxo-2,4,5,6,7,7 a-hexahydro-indole] gave an EC20 (isolated auricle) of 10 µg/mL (≈ 31.8 µM), an EC20 [1, 3] of 1 µg/mL (≈ 3.18 µM) and an EC20 [1, 4] of 5 µg/mL (≈ 15.9 µM). The LD50 [2] was 85 mg/kg and the “Aortal pressure … in 30 minutes” value (anaethestized dog) was 0%.

In the case of O=C1C(c2ccccc2)=C2CCCCC2N1c1ccc(OCCN2CCOCC2)cc1 (centres unmarked) [Example 21, 1-[4-(2-morpholinoethoxy)-phenyl]-2-oxo-3-phenyl-2,4,5,6,7,7a-hexahydro-indole], the EC20 (isolated auricle) is reported as 20 µg/mL (≈ 47.8 µM), the “Coronary delivery (in words)” value [1] is reported as “augmented” and the EC20 [1, 3] is reported as 1 µg/mL (≈ 2.39 µM). The EC20 [1, 5] was 2 µg/mL (≈ 4.78 µM), the EC20 [1, 4] was 10 µg/mL (≈ 23.9 µM) and the LD50 [2] was 55 mg/kg. For the same molecule, the “Aortal pressure … in 30 minutes” value (anaethestized dog) was 0% and the “Cardiac Rhythm” value (anaethestized dog) was 0%.

With CCN(CC)CCOc1ccc(N2C(=O)C(c3ccccc3)=C3CCCCC32)cc1 (centres unmarked) [Example 20, 1-[4-(2-diethylaminoethoxy)-phenyl]-2-oxo-3-phenyl-2,4,5,6,7,7a-hexahydro-indole] the EC20 (isolated auricle) was 2 µg/mL (≈ 4.94 µM), the “Coronary delivery (in words)” value [1] was “augmented” and the EC20 [1, 3] was 1 µg/mL (≈ 2.47 µM). The EC20 [1, 5] was 5 µg/mL (≈ 12.4 µM), the EC20 [1, 4] was 5 µg/mL (≈ 12.4 µM) and the LD50 [2] was 38 mg/kg. For the same molecule, the “Aortal pressure … in 30 minutes” value (anaethestized dog) was 0% and the “Femoral Delivery” value (anaethestized dog) was 0%.

With CN(C)CCOc1cccc(N2C(=O)C=C3CCCCC32)c1 (centres unmarked) [Example 12, 1-[3-(2-Dimethylaminoethoxy)-phenyl]-2-oxo-2,4,5,6,7,7a-hexahydro-indole] the EC20 (isolated auricle) was 10 µg/mL (≈ 33.3 µM), the EC20 [1, 3] was 1 µg/mL (≈ 3.33 µM) and the EC20 [1, 4] was 5 µg/mL (≈ 16.6 µM). The LD50 [2] was 27.5 mg/kg, the “Aortal pressure (in words)” value (anaethestized dog) was “hypotension” and the “Cardiac frequency (in words)” value (anaethestized dog) was “tachycardia”. For the same molecule, the “Vasodilator action (in words)” value (anaethestized dog) was “vasodilators”.

For O=C1C=C2CCCCC2N1c1cccc(OCCN2CCOCC2)c1 (centres unmarked) [Example 9, 1-[3-(2-Morpholinoethoxy)-phenyl]-2-oxo-2,4,5,6,7,7a-hexahydro-indole], the EC20 (isolated auricle) was 50 µg/mL (≈ 146 µM), the “Coronary delivery (in words)” value [1] was “augmented” and the EC20 [1, 3] was 1 µg/mL (≈ 2.92 µM). The EC20 [1, 5] was 20 µg/mL (≈ 58.4 µM), the LD50 [2] was 170 mg/kg and the “Aortal pressure … in 30 minutes” value (anaethestized dog) was 0%.

With CC(C)N(CCOc1ccc(N2C(=O)C=C3CCCCC32)cc1Cl)C(C)C (centres unmarked) [Example 18, 1-[3-Chloro-4-(2-diisopropylaminoethoxy)-phenyl]-2-oxo-2,4,5,6,7,7a-hexahydro-indole] the EC20 (isolated auricle) was 5 µg/mL (≈ 12.8 µM), the EC20 [1, 3] was 1 µg/mL (≈ 2.56 µM) and the LD50 [2] was 150 mg/kg. For the same molecule, the “Aortal pressure (in words)” value (anaethestized dog) was “hypertensives”.
